From ChEMBL document CHEMBL3872257, “Multitarget drug design strategy against Alzheimer's disease: Homoisoflavonoid Mannich base derivatives serve as acetylcholinesterase and monoamine oxidase B dual inhibitors with multifunctional properties” (Bioorg Med Chem, 2017)

How the values were obtained:
[1] = Inhibition of copper-mediated aggregation of amyloid beta (1 to 42 residues) (unknown origin) at 25 uM incubated for 24 hrs by thioflavin-T fluorescence assay relative to control; format: physicochemical
[2] = Antioxidant activity assessed as trolox equivalent of […]-induced radical scavenging activity preincubated for 15 mins followed by AAPH addition measured every minute for 120 mins by ORAC fluorescein assay; format: functional
[3] = target: Amyloid-beta precursor protein (Homo sapiens) (UniProt P05067); test: Inhibition of self-mediated aggregation of amyloid beta (1 to 42 residues) (unknown origin) at 25 uM incubated for 24 hrs by Thioflavin T fluorescence assay relative to control
Amyloid-beta precursor protein (Homo sapiens), sequence (P05067 whole entry, the tested form may be a part): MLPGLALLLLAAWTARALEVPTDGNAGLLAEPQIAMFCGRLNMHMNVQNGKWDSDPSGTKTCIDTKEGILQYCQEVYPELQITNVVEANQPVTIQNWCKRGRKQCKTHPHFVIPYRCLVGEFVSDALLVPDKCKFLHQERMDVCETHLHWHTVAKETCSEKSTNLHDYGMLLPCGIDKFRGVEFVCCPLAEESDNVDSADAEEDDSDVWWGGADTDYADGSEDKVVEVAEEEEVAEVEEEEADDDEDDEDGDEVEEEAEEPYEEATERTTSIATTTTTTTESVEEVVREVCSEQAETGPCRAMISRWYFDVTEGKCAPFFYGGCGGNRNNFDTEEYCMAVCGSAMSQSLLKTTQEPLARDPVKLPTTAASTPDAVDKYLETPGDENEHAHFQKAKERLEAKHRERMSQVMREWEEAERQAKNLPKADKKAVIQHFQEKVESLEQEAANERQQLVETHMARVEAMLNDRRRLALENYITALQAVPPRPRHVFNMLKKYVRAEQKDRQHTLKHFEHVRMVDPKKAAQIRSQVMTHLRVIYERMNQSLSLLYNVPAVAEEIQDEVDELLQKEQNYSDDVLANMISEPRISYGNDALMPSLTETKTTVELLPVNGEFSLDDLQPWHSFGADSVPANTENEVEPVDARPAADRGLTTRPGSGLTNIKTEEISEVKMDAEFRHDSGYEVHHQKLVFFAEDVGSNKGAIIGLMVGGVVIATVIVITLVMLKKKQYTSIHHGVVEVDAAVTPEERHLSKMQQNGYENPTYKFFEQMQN

[4] = target: Butyrylcholinesterase (Rattus norvegicus) (UniProt Q9JKC1); test: Inhibition of rat serum BuChE at 50 uM measured after 15 mins by Ellman's method relative to control
Butyrylcholinesterase (Rattus norvegicus), sequence (Q9JKC1 as listed by the source): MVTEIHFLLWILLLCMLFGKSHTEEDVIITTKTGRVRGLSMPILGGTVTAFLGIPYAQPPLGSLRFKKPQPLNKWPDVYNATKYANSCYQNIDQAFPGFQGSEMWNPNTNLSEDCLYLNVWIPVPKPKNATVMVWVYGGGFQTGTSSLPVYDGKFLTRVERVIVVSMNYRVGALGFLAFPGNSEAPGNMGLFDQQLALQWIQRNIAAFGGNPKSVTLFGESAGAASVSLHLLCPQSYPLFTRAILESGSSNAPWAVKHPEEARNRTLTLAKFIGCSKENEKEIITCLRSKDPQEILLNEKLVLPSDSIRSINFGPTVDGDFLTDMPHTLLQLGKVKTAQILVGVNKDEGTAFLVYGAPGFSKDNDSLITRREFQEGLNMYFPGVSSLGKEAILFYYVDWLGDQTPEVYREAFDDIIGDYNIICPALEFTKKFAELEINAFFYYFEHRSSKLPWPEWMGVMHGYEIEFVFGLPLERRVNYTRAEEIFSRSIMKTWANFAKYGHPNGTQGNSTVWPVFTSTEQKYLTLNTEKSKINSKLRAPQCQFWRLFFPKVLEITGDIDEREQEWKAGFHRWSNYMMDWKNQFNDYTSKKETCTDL

Acetylcholinesterase = Acetylcholinesterase (Electrophorus electricus, UniProt O42275); test: Inhibition of Electrophorus electricus AChE using acetylthiocholine iodide as substrate measured after 15 mins by Ellman's method
Acetylcholinesterase, sequence (O42275 whole entry): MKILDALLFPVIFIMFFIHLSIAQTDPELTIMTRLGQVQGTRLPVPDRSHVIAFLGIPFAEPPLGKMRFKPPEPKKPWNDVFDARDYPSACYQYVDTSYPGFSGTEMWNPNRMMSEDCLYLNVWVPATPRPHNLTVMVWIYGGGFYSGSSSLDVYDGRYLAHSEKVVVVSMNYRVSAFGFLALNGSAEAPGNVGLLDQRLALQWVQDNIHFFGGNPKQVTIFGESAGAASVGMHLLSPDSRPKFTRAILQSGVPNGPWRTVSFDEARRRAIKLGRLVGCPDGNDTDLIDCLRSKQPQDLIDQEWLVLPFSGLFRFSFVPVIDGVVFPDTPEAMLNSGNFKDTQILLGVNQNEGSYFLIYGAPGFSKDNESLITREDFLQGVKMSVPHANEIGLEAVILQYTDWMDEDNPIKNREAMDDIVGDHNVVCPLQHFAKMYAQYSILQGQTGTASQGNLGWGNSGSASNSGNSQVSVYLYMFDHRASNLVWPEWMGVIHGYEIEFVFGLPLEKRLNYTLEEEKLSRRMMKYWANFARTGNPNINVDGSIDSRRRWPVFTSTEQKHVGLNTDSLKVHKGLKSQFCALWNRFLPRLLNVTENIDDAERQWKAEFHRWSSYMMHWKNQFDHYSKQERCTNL

[5] = target: T1, Amine oxidase [flavin-containing] A (Homo sapiens, UniProt P21397); test: Inhibition of human recombinant MAO-A using kynuramine as substrate at 20 uM measured after 30 mins by fluorescence assay relative to control; settings: 0.5 h
T1 sequence (P21397 whole entry): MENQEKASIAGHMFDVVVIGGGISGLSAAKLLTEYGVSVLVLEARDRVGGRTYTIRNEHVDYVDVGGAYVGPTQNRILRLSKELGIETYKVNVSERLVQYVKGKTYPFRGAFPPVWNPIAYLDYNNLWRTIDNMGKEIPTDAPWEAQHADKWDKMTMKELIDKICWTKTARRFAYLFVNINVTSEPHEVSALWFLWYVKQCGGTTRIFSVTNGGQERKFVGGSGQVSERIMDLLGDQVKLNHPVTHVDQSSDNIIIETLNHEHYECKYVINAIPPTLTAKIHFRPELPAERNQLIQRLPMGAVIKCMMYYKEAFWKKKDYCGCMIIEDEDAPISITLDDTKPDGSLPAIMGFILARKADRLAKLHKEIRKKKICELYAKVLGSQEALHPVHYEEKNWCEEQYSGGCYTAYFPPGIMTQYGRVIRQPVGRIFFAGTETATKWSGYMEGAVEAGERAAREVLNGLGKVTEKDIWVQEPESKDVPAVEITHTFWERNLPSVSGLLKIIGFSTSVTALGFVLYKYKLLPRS

[6] = target: T2, Amine oxidase [flavin-containing] B (Homo sapiens, UniProt P27338); test: Inhibition of human recombinant MAO-B using kynuramine as substrate at 20 uM measured after 30 mins by fluorescence assay relative to control; settings: 0.5 h
T2 sequence (P27338 whole entry): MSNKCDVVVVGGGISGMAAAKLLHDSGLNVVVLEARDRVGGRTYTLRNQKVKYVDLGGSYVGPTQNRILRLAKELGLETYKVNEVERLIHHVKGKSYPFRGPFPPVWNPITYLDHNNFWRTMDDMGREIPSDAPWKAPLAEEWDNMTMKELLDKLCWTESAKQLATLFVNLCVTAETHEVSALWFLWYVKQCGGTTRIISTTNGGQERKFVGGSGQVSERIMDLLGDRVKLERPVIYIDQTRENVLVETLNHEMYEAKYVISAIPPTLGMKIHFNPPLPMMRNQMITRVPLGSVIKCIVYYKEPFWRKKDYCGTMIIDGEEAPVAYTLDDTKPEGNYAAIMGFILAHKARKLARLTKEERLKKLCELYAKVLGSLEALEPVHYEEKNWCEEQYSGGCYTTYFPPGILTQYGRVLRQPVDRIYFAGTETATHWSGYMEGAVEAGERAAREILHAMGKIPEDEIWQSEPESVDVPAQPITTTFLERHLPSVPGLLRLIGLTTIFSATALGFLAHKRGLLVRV

[7] = target: T2, Amine oxidase [flavin-containing] B
Description: Inhibition of human recombinant MAO-B using kynuramine as substrate measured after 30 mins by fluorescence assay

Homo sapiens = species: Homo sapiens; test: Selectivity index, ratio of IC50 for human recombinant MAO-A to IC50 for human recombinant MAO-B
[8] = Permeability of the compound at 100 ug/ml after 18 hrs by PAMPA assay; format: ADME; settings: read-out: permeability
[9] = Metal chelating activity assessed as aluminium-compound complex formation at 37.5 uM in presence of AlCl3 measured after 30 mins by UV-vis spectrometry; format: physicochemical; settings: 0.5 h
[10] = Metal chelating activity assessed as zinc-compound complex formation at 37.5 uM in presence of ZnCl2 measured after 30 mins by UV-vis spectrometry; format: physicochemical; settings: 0.5 h
[11] = Metal chelating activity assessed as iron-compound complex formation at 37.5 uM in presence of FeSO4 measured after 30 mins by UV-vis spectrometry; format: physicochemical; settings: 0.5 h
[12] = Metal chelating activity assessed as copper-compound complex formation at 37.5 uM in presence of CuCl2 measured after 30 mins by UV-vis spectrometry; format: physicochemical; settings: 0.5 h

| Compound | inhibition (INH) [1] | Activity [2] | inhibition [3] | inhibition [4] | IC50 (Acetylcholinesterase) | inhibition [5] | inhibition at 20 µM [6] | IC50 [7] | Ratio IC50 (Homo sapiens) | Papp at 18 h, 100 ug/ml [8] | Activity [9] | Activity [10] | Activity [11] | Activity [12] |
| --- | --- | --- | --- | --- | --- | --- | --- | --- | --- | --- | --- | --- | --- | --- |
| COc1cc(/C=C/C(=O)CC(=O)/C=C/c2ccc(O)c(OC)c2)ccc1O [CURCUMIN] | 67.2% |  |  |  |  |  |  |  |  |  |  |  |  |  |
| CCN(Cc1ccccc1)Cc1c(O)cccc1/C=C1\COc2cc(OC)c(OC)cc2C1=O | 28% | 1.34 equiv | 8% | < 5% | 172 µM | 9.8% | 38.1% |  |  |  |  |  |  |  |
| CCN(Cc1ccc(/C=C2\COc3cc(OC)c(OC)cc3C2=O)cc1O)Cc1ccccc1OC | 65.8% | 1.8 equiv | 44% | 22.7% | 15.7 µM | 14% |  | 1.5 µM | > 13.3 | 6.05 ×10⁻⁶ cm/s |  |  |  |  |
| COc1ccccc1CN(C)Cc1ccc(/C=C2\COc3cc(OC)c(OC)cc3C2=O)cc1O | 67.8% | 1.78 equiv | 37.8% | 11.2% | 16.4 µM | 12.3% |  | 1.03 µM | > 19.4 |  |  |  |  |  |
| CCN(Cc1ccccc1)Cc1ccc(/C=C2\COc3cc(OC)c(OC)cc3C2=O)cc1O | 49.9% | 1.13 equiv | 32.7% | < 5% | 0.364 µM | 15% |  | 1.72 µM | > 11.6 |  |  |  |  |  |
| COc1cc2c(cc1OC)C(=O)/C(=C/c1ccc(O)c(CN3CCCCC3)c1)CO2 | 49% | 2.32 equiv | 41.4% | < 5% | 0.928 µM | 17% |  | 14 µM | > 1.4 |  |  |  |  |  |
| CCN(CC)Cc1ccc(/C=C2\COc3cc(OC)c(OC)cc3C2=O)cc1O | 40.6% | 1.97 equiv | 21.2% | 7.72% | 0.0068 µM | 9.5% |  | 2.43 µM | > 8.2 |  |  |  |  |  |
| COc1cc2c(cc1OC)C(=O)/C(=C/c1ccc(CN3CCOCC3)c(O)c1)CO2 | 38.7% | 1.35 equiv | 28.3% | < 5% | 1.29 µM | 23% |  | 1.01 µM | > 19.8 |  |  |  |  |  |
| CCN(CC)Cc1c(O)cccc1/C=C1\COc2cc(OC)c(OC)cc2C1=O | 29.1% | 2.05 equiv | 20.1% | 6.31% | 37.4 µM | 8.5% | 36.7% |  |  |  |  |  |  |  |
| COc1cc2c(cc1OC)C(=O)/C(=C/c1cccc(O)c1CN1CCN(C)CC1)CO2 | 36.3% | 1.83 equiv | 26.8% | < 5% | 84.1 µM | 6.8% | 29.8% |  |  |  |  |  |  |  |
| COc1cc2c(cc1OC)C(=O)/C(=C/c1ccc(CN(C)C)c(O)c1)CO2 | 42.2% | 1.71 equiv | 35.2% | < 5% | 0.536 µM | 8.2% |  | 0.882 µM | > 22.7 |  |  |  |  |  |
| CCN(Cc1ccc(/C=C2\COc3cc(OC)c(OC)cc3C2=O)cc1O)Cc1ccccc1N(C)C | 79.9% | 0.97 equiv | 59.6% | 44.6% | 18.1 µM | 28.3% |  | 1.34 µM | > 14.9 | 10.5 ×10⁻⁶ cm/s | Active | Active | Active | Active |
| COc1cc2c(cc1OC)C(=O)/C(=C/c1ccc(CN3CCCC3)c(O)c1)CO2 | 36.5% | 1.65 equiv | 37.3% | 24.1% | 0.362 µM | 16.4% |  | 0.722 µM | > 27.7 | 11.1 ×10⁻⁶ cm/s |  |  |  |  |
| COc1cc2c(cc1OC)C(=O)/C(=C/c1ccc(CN3CCN(C)CC3)c(O)c1)CO2 | 40.5% | 2.11 equiv | 41.9% | < 5% | 6.26 µM | 40.5% |  | 0.915 µM | > 21.9 |  |  |  |  |  |
| COc1cc2c(cc1OC)C(=O)/C(=C/c1cccc(O)c1)CO2 | 30.3% | 1.73 equiv | 20.1% | 6.18% | 59.3 µM | 21.9% |  | 0.19 µM | > 105 |  |  |  |  |  |
| COc1cc2c(cc1OC)C(=O)/C(=C/c1cccc(O)c1CN1CCOCC1)CO2 | 32.4% | 1.52 equiv | 7.8% | 7.85% | 85.9 µM | 2.1% | 18.6% |  |  |  |  |  |  |  |
| COc1ccccc1CN(C)Cc1c(O)cccc1/C=C1\COc2cc(OC)c(OC)cc2C1=O | 54.9% | 1.69 equiv | 35.6% | 16% | 33.3 µM | 9.8% | 43.9% |  |  |  |  |  |  |  |
| COc1cc2c(cc1OC)C(=O)/C(=C/c1ccc(CN(C)Cc3ccccc3)c(O)c1)CO2 | 42.6% | 1.57 equiv | 7.7% | < 5% | 1.99 µM | 3.4% |  | 1.15 µM | > 17.4 |  |  |  |  |  |
